Source: patent publication US11753363B2, “13-oxidized ingenol derivative and use thereof” (Tianjin Pharmaceutical Da Ren Tang Group Corp., Ltd. …, priority 2017, dated 2023)
≈ marks a conversion by molar mass, not a printed value.

Columns and labels:
[1] = test system: A549 (human lung cancer cells); assay: Inhibition of proliferation of tumor cell lines (MTT), A549; type: cell-based; settings: Homo sapiens, A549, 72 h, read-out: IC50 value of compound for inhibition of proliferation of tumor cell lines, A549
Protocol: (§1) In this example, the inhibitory activity of compounds of the present invention against proliferation of seven human tumor cell lines and mouse B16-F10 melanoma cells was tested in vitro, and the IC50 value (50% inhibitory concentration) of compounds against each tumor cell line was calculated.
(§2) The seven human tumor cell lines are: MCF-7 (human breast cancer cells), LOVO (human colon cancer cells), A549 (human lung cancer cells), BGC-823 (human gastric cancer cells), SMMC-7721 (human liver cancer cells), K562 (human leukemia cells), and HeLa (human cervical cancer cells).
(§3) IC50 values of the compounds for A549, BGC-823, LOVO, MCF-7, SMMC-7721, HeLa, and B16-F10 cells were tested. The above cells were routinely cultured in 1640 nutrient solution containing 10% calf serum, with passage for 1 time every 2 days, and the cells in logarithmic growth phase were taken for experiments. After the A549, BGC-823, LOVO, MCF-7, SMMC-7721, HeLa and B16-F10 cells in logarithmic growth phase were subjected to 0.25% trypsin digestion, they were blown into a single cell suspension, and then the cell concentration was adjusted to about 1×10^5·mL^−1 using RPMI 1640 solution containing 10% calf serum. The cells were seeded in a 96-well culture plate at 100 μL per well, and cultured for 24 hours until the cells were attached. K562 cells were taken and centrifuged and diluted into 2×10^5·mL^−1 single cell suspension with RPMI 1640 solution containing 10% calf serum, and inoculated into a 96-well culture plate at 100 μL per well.
(§4) 100 μL of sample solution with different concentrations to be tested were added to the above 96-well plate, each concentration was added to 4 wells in parallel, and the cell control group was added with an equal volume of RPMI 1640 medium containing 10% calf serum to make a reaction volume of 200 μL. After incubating in an incubator at 37° C., 5% CO2 for 72 h, 10 μL of 5 mg·mL^−1 MTT solution was added to each well, and incubated at 37° C. for 4 h. The supernatant was carefully aspirated, 180 μL of DMSO was added to each well followed by shaking, and the absorbance (OD) value was measured at 570 nm on the microplate reader. The inhibition rate was calculated, and regression equation was established with the logarithmic value of the sample concentration and the inhibition rate (IR) to find the IC50 value of the compound against the cells to be tested. IR (%)=(1−OD value of the experimental group/OD value of the cell control group)×100%

[2] = test system: BGC-823 (human gastric cancer cells); assay: Inhibition of proliferation of tumor cell lines (MTT), BGC-823; type: cell-based; settings: Homo sapiens, BGC-823, 72 h, read-out: IC50 value of compound for inhibition of proliferation of tumor cell lines, BGC-823
Protocol: as §1, §2, §3, §4

[3] = test system: LOVO (human colon cancer cells); assay: Inhibition of proliferation of tumor cell lines (MTT), LOVO; type: cell-based; settings: Homo sapiens, 72 h, read-out: IC50 value of compound for inhibition of proliferation of tumor cell lines, LOVO
Protocol: as §1, §2, §3, §4

[4] = test system: K562 (human leukemia cells); assay: Inhibition of proliferation of tumor cell lines (MTT), K562; type: cell-based; settings: Homo sapiens, K562, 72 h, read-out: IC50 value of compound for inhibition of proliferation of tumor cell lines, K562
Protocol: as §1, §2, §3, §4

[5] = test system: SMMC-7721 (human liver cancer cells); assay: Inhibition of proliferation of tumor cell lines (MTT), SMMC-7721; type: cell-based; settings: Homo sapiens, SMMC-7721, 72 h, read-out: IC50 value of compound for inhibition of proliferation of tumor cell lines, SMMC-7721
Protocol: as §1, §2, §3, §4

[6] = test system: MCF-7 (human breast cancer cells); assay: Inhibition of proliferation of tumor cell lines (MTT), MCF-7; type: cell-based; settings: Homo sapiens, MCF7, MCF-7, 72 h, read-out: IC50 value of compound for inhibition of proliferation of tumor cell lines, MCF-7
Protocol: as §1, §2, §3, §4

[7] = test system: HeLa (human cervical cancer cells); assay: Inhibition of proliferation of tumor cell lines (MTT), HeLa; type: cell-based; settings: Homo sapiens, 72 h, read-out: IC50 value of compound for inhibition of proliferation of tumor cell lines, HeLA
Protocol: as §1, §2, §3, §4

[8] = test system: mouse B16-F10 melanoma cells; assay: Inhibition of proliferation of tumor cell lines (MTT), B16-F10; type: cell-based; settings: Mus musculus, B16-F10, 72 h, read-out: IC50 value of compound for inhibition of proliferation of tumor cell lines, B16-F10
Protocol: as §1, §3, §4

[9] = test system: neutrophilic granulocytes; assay: Neutrophil oxidative burst (luminol chemiluminescence); type: cell-based; settings: Neutrophil, rat neutrophils, (Csample−Ccontrol)/Ccontrol×100%, read-out: Efficiency of compounds in stimulating neutrophil oxidative burst; for activation at 0.1 µg/mL: 0.1 μg/mL; for activation at 3 µg/mL: 3 μg/mL
Protocol: This example investigated the effect of compound on neutrophil oxidative burst and calculated the efficiency of each compound in stimulating neutrophil oxidative burst.
Blood was taken from the abdominal aorta of rat. The neutrophilic granulocytes were isolated by the operational procedure of the rat peripheral blood neutrophil isolation kit. The neutrophilic granulocytes were re-suspended by Hanks, and were plated in a 96-well white plate at 1×10^5 cells/well, 80 μL/well; 1 mM of Luminol was added at 10 μL/well; 10 μL of the sample was added to each well, and the degree of oxidative burst was evaluated by chemiluminescence. Calculation formula of Efficiency: Efficiency (%)=(Csample−Ccontrol)/Ccontrol×100%

[10] = test system: release of IL-8 by human keratinocytes (HaCaT); assay: Release of IL-8 by human keratinocytes (HaCaT), IL-8 Elisa; type: cell-based; settings: Homo sapiens, HaCaT, 24 h, (Csample−Ccontrol)/Ccontrol×100%, read-out: Efficiency of compound in stimulating the release of IL-8 by HaCaT cells; for activation at 0.1 µg/mL: 0.1 μg/mL; for activation at 1 µg/mL: 1 μg/mL
Protocol: This Example investigated the effect of compound on release of IL-8 by human keratinocytes (HaCaT) and calculated the efficiency of each compound in stimulating the release of IL-8 by human keratinocytes (HaCaT).
Hacat cells were cultured in MEM+10% FBS under the conditions of 37° C., 5% CO2, and when the cells reached 80-95% fusion, they were inoculated into a 96-well culture plate (1×10^4 cells/well) at 100 μL/well, and incubated for 18-24 h. The supernatant was discarded and the cells were incubated for 3-6 h in 1% FBS medium. Different concentrations of the sample solution of compound to be tested were added to each well, and the cell control group was added with an equal volume of 1% FBS medium at 10 μL/well, and incubated for 24 h. The supernatant was taken and tested according to the operation sequence of the IL-8 Elisa kit. Calculation formula of Efficiency: Efficiency (%)=(Csample−Ccontrol)/Ccontrol×100%

B16-F0 mouse melanoma = assay: Antitumor activity in B16-F0 mouse melanoma model; type: in vivo; settings: female C57BL/6J mice, intradermal B16 tumor, skin administration once per day for 3 days, 20 μL/mouse, tumor weight on day 19
Protocol: This Example investigated the antitumor activity of compounds in B16-F0 mouse melanoma model.
In vitro passage of B16-F0 tumor source was inoculated subcutaneously into female C57BL/6J mice, and passage was carried out after tumor formation. After passage, the subcutaneous tumor tissue of the tumor-bearing mice was taken and ground with 3 times amount of physiological saline to form a tumor cell suspension, and 0.2 mL/mouse of which was inoculated subcutaneously into the axilla of forelimb of mice, which were used as the tumor-source mice. Female C57BL/6J mice were taken and their hair in an area of 4 cm^2 on the neck and back was shaven. After anesthesia with diethyl ether, B16 tumor source was inoculated intradermally at 0.05 mL/mouse. After 3 days of inoculation, the skin was continuously administered for 3 days, once per day, 20 μL/mouse each time, and in the test, a solvent group as a negative control group was included. On the 19th day of the experiment, the experiment was terminated. After the mice were euthanized, the intradermally transplanted tumors were completely separated and excised, and the tumor was weighed to calculate the tumor inhibition rate. Calculation formula of tumor inhibition rate: tumor inhibition rate (%)=(Wmodel group−Wadministration group)/Wmodel group×100%
The tumor growths of the experimental group and the solvent control group were compared to evaluate the antitumor activity of each compound, and the compound with P<0.05 was considered to be effective.

Row | Compound | IC50 [1] | IC50 [2] | IC50 [3] | IC50 [4] | IC50 [5] | IC50 [6] | IC50 [7] | IC50 [8] | activation at 0.1 µg/mL [9] | activation at 0.1 µg/mL [10] | Tumor-inhibition rate (B16-F0 mouse melanoma) | activation at 3 µg/mL [9] | activation at 1 µg/mL [10]
1 | CCCCCCCCCCCC(=O)O[C@@]12C[C@@H](C)[C@]34C=C(C)[C@H](OC(=O)C(C)(C)C)[C@@]3(O)[C@H](O)C(CO)=C[C@H](C4=O)[C@@H]1C2(C)C [3-O-trimethylacetyl-13-O-dodecanoyl-ingenol] | 17.5 µg/mL (≈ 27.7 µM) | 6.81 µg/mL (≈ 10.8 µM) | 9.68 µg/mL (≈ 15.3 µM) | < 0.2 µg/mL | 15.1 µg/mL (≈ 23.9 µM) | 8.79 µg/mL (≈ 13.9 µM) | 14.2 µg/mL (≈ 22.5 µM) | 7.7 µg/mL (≈ 12.2 µM) | 205% | 83.7% | 47.4% |  | 
2 | C/C=C(/C)C(=O)O[C@H]1C(C)=C[C@]23C(=O)[C@@H](C=C(CO)[C@@H](O)[C@]12O)[C@@H]1C(C)(C)[C@]1(OC(=O)CCCCCCCCCCC)C[C@H]3C [Compound 9, 3-O-angeloyl-13-O-dodecanoyl-ingenol] | 10.8 µg/mL (≈ 17.2 µM) | 0.85 µg/mL (≈ 1.35 µM) | 10.1 µg/mL (≈ 16.1 µM) | 1.87 µg/mL (≈ 2.97 µM) | 8.86 µg/mL (≈ 14.1 µM) | 10.1 µg/mL (≈ 16.1 µM) | 12.5 µg/mL (≈ 19.9 µM) | 10.4 µg/mL (≈ 16.5 µM) |  |  | 71.8% | 77% | 23.5%
3 | CCCCCCCCCCCC(=O)O[C@@]12C[C@@H](C)[C@]34C=C(C)[C@H](O)[C@@]3(O)[C@H](O)C(COC(C)=O)=C[C@H](C4=O)[C@@H]1C2(C)C [Compound 12, 20-O-acetyl-13-O-dodecanoyl-ingenol] | 16 µg/mL (≈ 27.2 µM) | 10.3 µg/mL (≈ 17.5 µM) | 6.71 µg/mL (≈ 11.4 µM) | 0.06 µg/mL (≈ 0.102 µM) | 12.7 µg/mL (≈ 21.6 µM) | 12.7 µg/mL (≈ 21.6 µM) | 32.3 µg/mL (≈ 54.9 µM) | 14 µg/mL (≈ 23.8 µM) |  |  | 40.7% | 88.3% | 37%
4 | C/C=C(/C)C(=O)O[C@H]1C(C)=C[C@]23C(=O)[C@@H](C=C(CO)[C@@H](O)[C@]12O)[C@@H]1C(C)(C)[C@]1(OC(=O)CCC)C[C@H]3C [Compound 16, 3-O-angeloyl-13-O-butanoyl-ingenol] | 46.8 µg/mL (≈ 90.6 µM) | 44.1 µg/mL (≈ 85.4 µM) | 36.9 µg/mL (≈ 71.4 µM) | 4.21 µg/mL (≈ 8.15 µM) | 43.5 µg/mL (≈ 84.2 µM) | 38.4 µg/mL (≈ 74.3 µM) | 61.1 µg/mL (≈ 118 µM) | 17 µg/mL (≈ 32.9 µM) |  | 84.6% | 89.6% | 80.1% | 
5 | C/C=C(/C)C(=O)O[C@H]1C(C)=C[C@]23C(=O)[C@@H](C=C(CO)[C@@H](O)[C@]12O)[C@@H]1C(C)(C)[C@]1(OC(=O)CCCCC)C[C@H]3C [Compound 17, 3-O-angeloyl-13-O-hexanoyl-ingenol] | 21.7 µg/mL (≈ 39.8 µM) | 21.7 µg/mL (≈ 39.8 µM) | 16.9 µg/mL (≈ 31 µM) | 2.93 µg/mL (≈ 5.38 µM) | 21.1 µg/mL (≈ 38.7 µM) | 18.6 µg/mL (≈ 34.1 µM) | 18.6 µg/mL (≈ 34.1 µM) | 6.5 µg/mL (≈ 11.9 µM) | 82.1% | 121% | 68.8% |  | 
6 | C/C=C(/C)C(=O)O[C@H]1C(C)=C[C@]23C(=O)[C@@H](C=C(CO)[C@@H](O)[C@]12O)[C@@H]1C(C)(C)[C@]1(OC(=O)CCCCCCC)C[C@H]3C [Compound 18, 3-O-angeloyl-13-O-octanoyl-ingenol] | 13.6 µg/mL (≈ 23.7 µM) | 10.1 µg/mL (≈ 17.6 µM) | 8.47 µg/mL (≈ 14.8 µM) | 1.41 µg/mL (≈ 2.46 µM) | 12.4 µg/mL (≈ 21.7 µM) | 11.7 µg/mL (≈ 20.4 µM) | 12.2 µg/mL (≈ 21.3 µM) | 8.43 µg/mL (≈ 14.7 µM) | 69.1% | 29.8% | 59.0% |  | 
7 | C/C=C(/C)C(=O)O[C@H]1C(C)=C[C@]23C(=O)[C@@H](C=C(CO)[C@@H](O)[C@]12O)[C@@H]1C(C)(C)[C@]1(OC(=O)CCCCCCCCC)C[C@H]3C [Compound 19, 3-O-angeloyl-13-O-decanoyl-ingenol] | 12.6 µg/mL (≈ 21 µM) | 14 µg/mL (≈ 23.3 µM) | 7.9 µg/mL (≈ 13.1 µM) | 2.13 µg/mL (≈ 3.55 µM) | 13.4 µg/mL (≈ 22.3 µM) | 9.3 µg/mL (≈ 15.5 µM) | 8.58 µg/mL (≈ 14.3 µM) | 9.85 µg/mL (≈ 16.4 µM) | 43.5% | 144% | 65.7% |  | 
8 | CCCCCCCCCCCC(=O)O[C@@]12C[C@@H](C)[C@]34C=C(C)[C@H](OC(=O)C(C)=C(C)C)[C@@]3(O)[C@H](O)C(CO)=C[C@H](C4=O)[C@@H]1C2(C)C [Compound 21, 3-O-(2,3-dimethylbutenoyl)-13-O-dodecanoyl-ingenol] | 11.8 µg/mL (≈ 18.4 µM) | 10.4 µg/mL (≈ 16.2 µM) | 12.4 µg/mL (≈ 19.3 µM) | 2.06 µg/mL (≈ 3.2 µM) | 12.8 µg/mL (≈ 19.9 µM) | 8.32 µg/mL (≈ 12.9 µM) | 15.3 µg/mL (≈ 23.8 µM) | 15.1 µg/mL (≈ 23.5 µM) |  | 127% | 64.1% | 34.8% | 
